Data published in US20230151003A1, “COMPOUNDS AND METHODS OF USE” (Exelixis, Inc., priority 2020, published 2023).
Structures can show the parent of a compound that is named as a salt.

These compounds were tested against T1, AXL (Homo sapiens, UniProt P30530) (assay: AXL autophosphorylation ELISA in A-172 cells). Conditions: Table 3 Cellular Activities, Gas6-stimulated, phospho-AXL ELISA.
T1 construct: endogenous in cells; host or cells: A-172 glioblastoma cells (ATCC #CRL-1620)
T1 sequence (P30530 26-894): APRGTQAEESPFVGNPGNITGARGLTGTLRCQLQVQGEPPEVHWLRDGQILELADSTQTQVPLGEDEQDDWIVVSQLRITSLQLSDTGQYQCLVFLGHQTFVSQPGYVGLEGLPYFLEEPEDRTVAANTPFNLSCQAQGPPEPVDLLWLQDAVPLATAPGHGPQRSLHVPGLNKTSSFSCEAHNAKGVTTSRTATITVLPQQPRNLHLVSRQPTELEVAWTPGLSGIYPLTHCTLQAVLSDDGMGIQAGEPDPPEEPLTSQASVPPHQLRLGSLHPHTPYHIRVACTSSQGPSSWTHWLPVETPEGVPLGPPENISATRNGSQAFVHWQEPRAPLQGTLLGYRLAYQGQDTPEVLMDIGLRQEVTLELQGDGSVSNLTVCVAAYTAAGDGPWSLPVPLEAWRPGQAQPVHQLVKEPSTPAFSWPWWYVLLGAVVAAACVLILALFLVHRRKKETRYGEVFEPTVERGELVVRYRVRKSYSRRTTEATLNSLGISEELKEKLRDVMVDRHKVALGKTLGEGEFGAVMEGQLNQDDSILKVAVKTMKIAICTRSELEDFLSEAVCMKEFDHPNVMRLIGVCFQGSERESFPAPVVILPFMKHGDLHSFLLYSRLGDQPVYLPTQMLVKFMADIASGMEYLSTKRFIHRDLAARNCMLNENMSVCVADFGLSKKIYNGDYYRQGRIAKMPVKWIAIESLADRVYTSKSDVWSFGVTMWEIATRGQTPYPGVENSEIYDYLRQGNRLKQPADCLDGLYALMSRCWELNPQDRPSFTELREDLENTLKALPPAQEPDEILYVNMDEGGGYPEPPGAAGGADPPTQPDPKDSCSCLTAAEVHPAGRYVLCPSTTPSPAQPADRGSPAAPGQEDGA
Type: cell-based
Protocol: A-172 glioblastoma cells (ATCC #CRL-1620) were seeded at 2.5×10^5 cells/well onto 24-well plates (Greiner #662165), in DMEM (Thermo Fisher #11995-040) containing 10% FBS (Thermo Fisher #26140-079), 1% MEM NEAA (Thermo Fisher #11140-050), 1% GlutaMax (Thermo Fisher #35050-061), and 1% Penicillin Streptomycin (Thermo Fisher #15140-122). A-172 cells were incubated at 37° C., 5% CO2 for 24 h and then starved for 24 h in serum-free medium. Test compounds were serially diluted to produce an 8-point dose curve in fresh serum-free medium to a final concentration of 0.3% DMSO (vehicle) and added to the cells and incubated for 1 h. Cells were then stimulated with 1 μg/mL recombinant human Gas6 (R&D Systems #885-GSB-500) for 15 min, washed with cold PBS, and immediately lysed with 150 μL of cold 1× lysis buffer [20 mM Tris, 137 mM sodium chloride, 2 mM EDTA, 10% glycerol, 1% NP-40 alternative, 1 mM activated sodium orthovanadate, 1 mM PefaBloc SC (Sigma-Aldrich #11429868001), protease/phosphatase inhibitor tablet (Thermo Fisher #A32959)]. Lysates were collected and 100 μL/well added into the human phospho-AXL DuoSet IC ELISA (R&D Systems #DYC2228-2). Assay was performed according to manufacturer's instructions and sample phospho-AXL concentrations were extrapolated using human phospho-AXL control (R&D Systems #841645) as a standard. Positive control wells (100% activity) contained Gas6-stimulated, DMSO-treated cell lysates. Negative control wells (0% activity) contained Gas6-stimulated, reference inhibitor-treated cell lysates. IC50 values were calculated by nonlinear regression analysis using a 4-parameter logistic curve fit in ActivityBase XE (IDBS).

SMILES | IC50 [nM]
COc1cc2nccc(Oc3ccc(NC(=O)c4cnc(C)c(-c5ccco5)c4O)cc3)c2nc1OC [Compound 255, N-[4-[(6,7-Dimethoxy-1,5-naphthyridin-4-yl)oxy]phenyl]-5-(furan-2-yl)-4-hydroxy-6-methylpyridine-3-carboxamide] | ≤ 100
COc1cc2nccc(Oc3ccc(NC(=O)c4c(C)n(C)cc(-c5ccc(F)cn5)c4=O)cc3F)c2nc1OC [Compound 71, N-[4-[(6,7-Dimethoxy-1,5-naphthyridin-4-yl)oxy]-3-fluorophenyl]-5-(5-fluoropyridin-2-yl)-1,2-dimethyl-4-oxopyridine-3-carboxamide] | ≤ 100
COc1cc2nccc(Oc3ccc(NC(=O)c4cc(C(C)=O)c(C)n(-c5ccco5)c4=O)cc3)c2nc1OC [Compound 237, 5-Acetyl-N-[4-[(6,7-dimethoxy-1,5-naphthyridin-4-yl)oxy]phenyl]-1-(furan-2-yl)-6-methyl-2-oxopyridine-3-carboxamide] | ≤ 100
COc1cc2nccc(Oc3ccc(NC(=O)c4cccn(-c5cc[n+]([O-])cc5)c4=O)cc3F)c2nc1OC [Compound 247, N-[4-[(6,7-Dimethoxy-1,5-naphthyridin-4-yl)oxy]-3-fluorophenyl]-1-(1-oxidopyridin-1-ium-4-yl)-2-oxopyridine-3-carboxamide hydrochloride] | 300 to 1000
COc1cc(-n2c(C)ccc(C(=O)Nc3ccc(Oc4ccnc5cc(OC)c(OC)nc45)c(F)c3)c2=O)ccn1 [Compound 226, N-[4-[(6,7-Dimethoxy-1,5-naphthyridin-4-yl)oxy]-3-fluorophenyl]-1-(2-methoxypyridin-4-yl)-6-methyl-2-oxopyridine-3-carboxamide] | ≤ 100
COc1cnc2c(Oc3ccc(NC(=O)c4c(C)n(C)cc(-c5ccc(F)cn5)c4=O)cc3F)ccnc2c1 [Compound 73, N-[3-Fluoro-4-[(7-methoxy-1,5-naphthyridin-4-yl)oxy]phenyl]-5-(5-fluoropyridin-2-yl)-1,2-dimethyl-4-oxopyridine-3-carboxamide] | ≤ 100
COc1cc2nccc(Oc3ccc(NC(=O)c4ccc(C)n(-c5cccnn5)c4=O)cc3F)c2nc1OC [Compound 234, N-[4-[(6,7-Dimethoxy-1,5-naphthyridin-4-yl)oxy]-3-fluorophenyl]-6-methyl-2-oxo-1-pyridazin-3-ylpyridine-3-carboxamide] | ≤ 100
COc1cnc2c(Oc3ccc(NC(=O)c4cnc(C)c(-c5cccs5)c4O)cc3)ccnc2c1 [Compound 257, 4-Hydroxy-N-[4-[(7-methoxy-1,5-naphthyridin-4-yl)oxy]phenyl]-6-methyl-5-thiophen-2-ylpyridine-3-carboxamide] | ≤ 100
COc1cc2nccc(Oc3ccc(NC(=O)c4c(C)cc(C)n(-c5ccc(F)cn5)c4=O)cc3)c2nc1OC [Compound 245, N-[4-[(6,7-Dimethoxy-1,5-naphthyridin-4-yl)oxy]phenyl]-1-(5-fluoropyridin-2-yl)-4,6-dimethyl-2-oxopyridine-3-carboxamide] | ≤ 100
COc1cc2nccc(Oc3ccc(NC(=O)c4ccc(C)n(-c5cc[n+]([O-])cc5)c4=O)cc3F)c2nc1OC [Compound 231, N-[4-[(6,7-Dimethoxy-1,5-naphthyridin-4-yl)oxy]-3-fluorophenyl]-6-methyl-1-(1-oxidopyridin-1-ium-4-yl)-2-oxopyridine-3-carboxamide] | ≤ 100
COc1cc2nccc(Oc3ccc(NC(=O)c4c(C)ncc(-c5ncc(F)cc5C)c4O)cc3F)c2nc1OC [Compound 200, N-[4-[(6,7-Dimethoxy-1,5-naphthyridin-4-yl)oxy]-3-fluorophenyl]-5-(5-fluoro-3-methylpyridin-2-yl)-4-hydroxy-2-methylpyridine-3-carboxamide] | ≤ 100
COc1cc2nccc(Oc3ccc(NC(=O)c4nccn(-c5ccc(F)cn5)c4=O)cc3F)c2nc1OC [Compound 246, N-[4-[(6,7Dimethoxy-1,5-naphthyridin-4-yl)oxy]-3-fluorophenyl]-4-(5-fluoropyridin-2-yl)-3-oxopyrazine-2-carboxamide] | ≤ 100
CCOc1ccn(-c2ccc(F)cn2)c(=O)c1C(=O)Nc1ccc(Oc2ccnc3cc(OC)c(OC)nc23)c(F)c1 [Compound 243, N-[4-[(6,7-dimethoxy-1,5-naphthyridin-4-yl)oxy]-3-fluorophenyl]-4-ethoxy-1-(5-fluoropyridin-2-yl)-2-oxopyridine-3-carboxamide] | ≤ 100
COc1cc2nccc(Oc3ccc(NC(=O)c4cc(C(C)=O)c(C)n(-c5ccoc5)c4=O)cc3F)c2nc1OC [Compound 235, 5-Acetyl-N-[4-[(6,7-dimethoxy-1,5-naphthyridin-4-yl)oxy]-3-fluorophenyl]-1-(furan-3-yl)-6-methyl-2-oxopyridine-3-carboxamide] | ≤ 100

Results, then the compound that gave them:

IC50 [nM] | SMILES
≤ 100 | COc1cc2nccc(Oc3ccc(NC(=O)c4c5n(c(C)c(-c6ccsc6)c4=O)CCOC5)cc3F)c2nc1OC [Compound 307, N-[4-[(6,7-Dimethoxy-1,5-naphthyridin-4-yl)oxy]-3-fluorophenyl]-6-methyl-8-oxo-7-thiophen-3-yl-3,4-dihydro-1H-pyrido[2,1-c][1,4]oxazine-9-carboxamide]
≤ 100 | COc1cc2nccc(Oc3ccc(NC(=O)c4c5n(cc(-c6ccc(C)s6)c4=O)CCOC5)cc3)c2nc1OC [Compound 305, N-[4-[(6,7-Dimethoxy-1,5-naphthyridin-4-yl)oxy]phenyl]-7-(5-methylthiophen-2-yl)-8-oxo-3,4-dihydro-1H-pyrido[2,1-c][1,4]oxazine-9-carboxamide]
300 to 1000 | COc1cc2nccc(Oc3ccc(NC(=O)c4cnc(C)c(-c5ccco5)n4)cc3F)c2nc1OC [Compound 269, N-[4-[(6,7-Dimethoxy-1,5-naphthyridin-4-yl)oxy]-3-fluorophenyl]-6-(furan-2-yl)-5-methylpyrazine-2-carboxamide]
≤ 100 | COc1cc2nccc(Oc3ccc(NC(=O)c4c(C)n(C)c(C)c(-c5coc6ccccc56)c4=O)cc3F)c2nc1OC [Compound 262, 5-(1-Benzofuran-3-yl)-N-[4-[(6,7-dimethoxy-1,5-naphthyridin-4-yl)oxy]-3-fluorophenyl]-1,2,6-trimethyl-4-oxopyridine-3-carboxamide]
≤ 100 | COc1cc2nccc(Oc3ccc(NC(=O)c4c5n(cc(-c6ccc(C)s6)c4=O)CCOC5)cc3F)c2nc1OC [Compound 304, N-[4-[(6,7-Dimethoxy-1,5-naphthyridin-4-yl)oxy]-3-fluorophenyl]-7-(5-methylthiophen-2-yl)-8-oxo-3,4-dihydro-1H-pyrido[2,1-c][1,4]oxazine-9-carboxamide]
≤ 100 | COc1cc2nccc(Oc3ccc(NC(=O)c4cnc(C)c(-c5ccco5)c4O)cc3F)c2cc1OC [Compound 259, N-[4-(6,7-Dimethoxyquinolin-4-yl)oxy-3-fluorophenyl]-5-(furan-2-yl)-4-hydroxy-6-methylpyridine-3-carboxamide]
≤ 100 | COc1cnc2c(Oc3ccc(NC(=O)c4cn(CCF)c(C)c(-c5cc(C)cs5)c4=O)cc3F)ccnc2c1 [Compound 328, 1-(2-Fluoroethyl)-N-[3-fluoro-4-[(7-methoxy-1,5-naphthyridin-4-yl)oxy]phenyl]-6-methyl-5-(4-methylthiophen-2-yl)-4-oxopyridine-3-carboxamide]
≤ 100 | COCCOc1cc2nccc(Oc3ccc(NC(=O)c4c(C)n(C)c(C)c(-c5cc6ccccc6o5)c4=O)cc3F)c2nc1OC [Compound 263, 5-(1-Benzofuran-2-yl)-N-[3-fluoro-4-[[6-methoxy-7-(2-methoxyethoxy)-1,5-naphthyridin-4-yl]oxy]phenyl]-1,2,6-trimethyl-4-oxopyridine-3-carboxamide]
